# Data: US8163805B2, “Small molecule antagonists of Bcl-2 family proteins” (The Regents of the University of Michigan, priority 2001, dated 2012)
# Legend:
# [1] = test system: Fib-2 (fibroblast cell line 2); assay: 6-day MTT cell growth, Fib-2; type: cell-based, human; details: read-out: IC50, inhibition of cell growth
# Method: (§1) UM-SCC and human fibroblast cell lines were continuously exposed to varying concentrations of (−)-gossypol in 6-day MTT cell survival assays. Control wells contained media (DMEM) with vehicle alone. For each data point n=5.
# (§2) Ten squamous cell carcinoma cell lines established at the University of Michigan (UM-SCC) and three human fibroblast lines were grown in Dulbecco's modified Eagle's medium (DMEM) supplemented with 10% fetal bovine serum. UM-SCC cell lines originated from the larynx (n=2; UM-SCC-12, -23), oral cavity/oropharynx (n=5; UM-SCC-1, -6, -14A, -74B, -81B), hypopharynx (n=1; UM-SCC-22A) and metastases from laryngeal cancers (n=2; UM-SCC-17B, -25). Human fibroblast cell lines originated from surgical specimens (fibroblast cell lines 2 and 3) and neonatal foreskin samples (fibroblast cell line 1).
# (§3) Logarithmically growing cell lines were cultured, washed, counted, and plated at 5,000-15,000 cells per well in duplicate wells of 96-well plates and incubated in DMEM overnight. […] The MTT assay measures cell survival based on mitochondrial conversion of MTT from a soluble tetrazolium salt into an insoluble colored formazan precipitate, which is dissolved in dimethyl sulfoxide and quantitated by spectrophotometry. […] Percent absorbance relative to control was plotted as a linear function of drug concentration.
# [2] = test system: colon cancer cell line HT-29 xenograft; details: Table 12; cisplatin 10 mg/kg i.v. twice q week; most mice, during the 2nd week of treatment; dose too high
# UM-SCC-23 = assay: 6-day MTT cell growth, UM-SCC-23; type: cell-based, human; details: read-out: IC50, inhibition of cell growth
# Method: as §1, §2, §3
# UM-SCC-22A = assay: 6-day MTT cell growth, UM-SCC-22A; type: cell-based, human; details: read-out: IC50, inhibition of cell growth
# Method: as §1, §2, §3
# UM-SCC-6 = assay: 6-day MTT cell growth, UM-SCC-6; type: cell-based, human; details: read-out: IC50, inhibition of cell growth
# Method: as §1, §2, §3
# UM-SCC-25 = assay: 6-day MTT cell growth, UM-SCC-25; type: cell-based, human; details: read-out: IC50, inhibition of cell growth
# Method: as §1, §2, §3
# UM-SCC-17B = assay: 6-day MTT cell growth, UM-SCC-17B; type: cell-based, human; details: read-out: IC50, inhibition of cell growth
# Method: as §1, §2, §3
# [3] = test system: Fib-3 (fibroblast cell line 3); assay: 6-day MTT cell growth, Fib-3; type: cell-based, human; details: read-out: IC50, inhibition of cell growth
# Method: as §1, §2, §3
# UM-SCC-12 = assay: 6-day MTT cell growth, UM-SCC-12; type: cell-based, human; details: read-out: IC50, inhibition of cell growth
# Method: as §1, §2, §3
# [4] = test system: PC-3 human prostate cancer bilateral xenografts; assay: PC-3 xenograft, (−)-gossypol alone and with cisplatin (Table 11); type: in vivo, NCr-nu nude mouse; details: mouse, in vivo
# [5] = test system: Fib-1 (fibroblast cell line 1); assay: 6-day MTT cell growth, Fib-1; type: cell-based, human; details: read-out: IC50, inhibition of cell growth
# Method: as §1, §2, §3
# UM-SCC-1 = assay: 6-day MTT cell growth, UM-SCC-1; type: cell-based, human; details: read-out: IC50, inhibition of cell growth
# Method: as §1, §2, §3
# UM-SCC-74B = assay: 6-day MTT cell growth, UM-SCC-74B; type: cell-based, human; details: read-out: IC50, inhibition of cell growth
# Method: as §1, §2, §3
# UM-SCC-81B = assay: 6-day MTT cell growth, UM-SCC-81B; type: cell-based, human; details: read-out: IC50, inhibition of cell growth
# Method: as §1, §2, §3
# UM-SCC-14A = assay: 6-day MTT cell growth, UM-SCC-14A; type: cell-based, human; details: read-out: IC50, inhibition of cell growth
# Method: as §1, §2, §3
# [6] = test system: A549 non-small cell lung carcinoma xenograft; assay: A549 non-small cell lung carcinoma xenograft, (−)-gossypol with paclitaxel; details: Table 13; paclitaxel 15 mg/kg i.p. twice q week for 3 weeks, alone
# [7] = test system: A549 non-small cell lung carcinoma xenograft; details: mouse, in vivo
Compound,IC50 [1],mortality in cisplatin treated group [2],IC50 (UM-SCC-23),IC50 (UM-SCC-22A),IC50 (UM-SCC-6),IC50 (UM-SCC-25),IC50 (UM-SCC-17B),IC50 [3],IC50 (UM-SCC-12),time after CDDP treatment stopped when mice started to gain back the weight [4],IC50 [5],IC50 (UM-SCC-1),IC50 (UM-SCC-74B),IC50 (UM-SCC-81B),IC50 (UM-SCC-14A),tumor growth inhibition [6],weight loss [7]
"N.N.[Cl][Pt][Cl] [Cisplatin, cisplatin, reference compound]",> 50 µM,mice were dead in the cisplatin,25 µM,5 µM,> 50 µM,43 µM,13 µM,> 50 µM,22 µM,to gain back the weight 1-2 weeks,> 50 µM,30 µM,12 µM,22 µM,29 µM,–,–
CC(=O)O[C@H]1C(=O)[C@@]2(C)[C@H]([C@H](OC(=O)c3ccccc3)[C@]3(O)C[C@H](OC(=O)[C@H](O)[C@@H](NC(=O)c4ccccc4)c4ccccc4)C(C)=C1C3(C)C)[C@]1(OC(C)=O)CO[C@@H]1C[C@@H]2O [Paclitaxel],–,–,–,–,–,–,–,–,–,–,–,–,–,–,–,achieved about 67% tumor growth,There was no weight loss in mice
